The results in this text go back to PMC11192564 (Cell metabolism, 2023).

The target of test [1] is T1, SAMTOR (Homo sapiens, UniProt Q1RMZ1).
T1 sequence (Q1RMZ1 1-405): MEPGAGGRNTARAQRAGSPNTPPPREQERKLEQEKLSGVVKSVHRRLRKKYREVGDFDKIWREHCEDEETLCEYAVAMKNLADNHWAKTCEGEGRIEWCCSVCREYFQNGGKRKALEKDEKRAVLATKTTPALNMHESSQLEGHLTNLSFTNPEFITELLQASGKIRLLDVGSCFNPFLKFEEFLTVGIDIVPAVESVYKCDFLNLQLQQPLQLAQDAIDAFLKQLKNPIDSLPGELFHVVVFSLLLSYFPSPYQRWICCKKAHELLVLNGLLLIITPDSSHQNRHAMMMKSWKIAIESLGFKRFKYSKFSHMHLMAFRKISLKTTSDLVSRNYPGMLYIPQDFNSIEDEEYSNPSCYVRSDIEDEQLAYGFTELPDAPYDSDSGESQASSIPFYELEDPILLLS
Description: microscale thermophoresis. It counts as binding.

Test [2] deals with T2, Samtor (Mus musculus, UniProt Q8BXK4).
T2 sequence (Q8BXK4 1-403): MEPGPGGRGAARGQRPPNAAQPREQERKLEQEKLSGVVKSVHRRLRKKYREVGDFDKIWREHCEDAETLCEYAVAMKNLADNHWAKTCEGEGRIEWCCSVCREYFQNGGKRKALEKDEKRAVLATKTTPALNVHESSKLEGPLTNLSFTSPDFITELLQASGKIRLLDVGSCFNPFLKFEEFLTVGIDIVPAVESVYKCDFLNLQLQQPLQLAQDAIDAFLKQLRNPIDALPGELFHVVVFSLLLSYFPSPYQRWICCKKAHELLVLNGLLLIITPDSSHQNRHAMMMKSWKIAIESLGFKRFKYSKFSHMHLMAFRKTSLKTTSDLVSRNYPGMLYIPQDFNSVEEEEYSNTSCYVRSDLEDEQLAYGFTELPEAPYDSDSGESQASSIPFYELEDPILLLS
The experiment in a line: microscale thermophoresis. It counts as binding. (In MST a laser heats a spot of the sample, and binding alters the fluorescence response.)

For orientation: Kd means the free concentration of one partner at which half of the binding sites on the other are occupied at equilibrium, for simple one-to-one binding. Low values mean higher affinity, high ones lower affinity. In the case of `C[S+](CC[C@H](N)C(=O)[O-])C[C@H]1O[C@@H](n2cnc3c(N)ncnc32)[C@H](O)[C@@H]1O` (some centres unmarked) [SAM], the Kd on SAMTOR [1] is ~7 µM; at Samtor [2], ~10 µM.
